What was measured:
[1] = molecular target: Cyclin-dependent kinase 7/ cyclin H (Homo sapiens) (UniProt P51946+P50613); test: Inhibition of CDK7/cyclin H (unknown origin) at 10 uM by ADP-Glo assay relative to control; type: protein-complex assay
[2] = Antiproliferative activity against HEK293 cells assessed as cell growth inhibition at 10 uM incubated for 48 hrs by MTT assay relative to control; type: toxicity, cell-based; details: human
[3] = molecular target: CDK9/Cyclin K (Homo sapiens) (UniProt P50750+O75909); test: Inhibition of CDK9/cyclin K (unknown origin) at 10 uM by ADP-Glo assay relative to control; type: protein-complex assay
HCT-116 [4] = test: Antiproliferative activity against human HCT-116 cells assessed as cell growth inhibition at 10 uM incubated for 48 hrs by MTT assay relative to control; type: functional
MIA PaCa-2 [5] = test: Antiproliferative activity against human MIA PaCa-2 cells assessed as cell growth inhibition at 10 uM incubated for 48 hrs by MTT assay relative to control; type: functional
CDK9/cyclin T1 = CDK9/cyclin T1 (Homo sapiens, UniProt P50750); test: Inhibition of CDK9/cyclin T1 (unknown origin) by ADP-Glo assay; type: protein-complex assay
[6] = Antiproliferative activity against HEK293 cells assessed as cell growth inhibition incubated for 48 hrs by MTT assay; type: toxicity, cell-based; details: human
MIA PaCa-2 [7] = test: Antiproliferative activity against human MIA PaCa-2 cells assessed as cell growth inhibition incubated for 48 hrs by MTT assay; type: functional
HCT-116 [8] = test: Antiproliferative activity against human HCT-116 cells assessed as cell growth inhibition incubated for 48 hrs by MTT assay; type: functional
[9] = molecular target: Cyclin-dependent kinase 7/ cyclin H (Homo sapiens, UniProt P50613); test: Inhibition of CDK7/cyclin H (unknown origin) by ADP-Glo assay; type: protein-complex assay
MIA PaCa-2 [10] = test: Induction of apoptosis in human MIA PaCa-2 cells assessed as apoptotic body formation incubated for 48 hrs by DAPI staining based analysis; type: functional, cell-based
MIA PaCa-2 [11] = test: Induction of mitochondrial membrane potential loss in human MIA PaCa-2 cells incubated for 48 hrs by Rhodamine-123 dye based analysis; type: functional, cell-based
MIA PaCa-2 [12] = test: Induction of apoptosis in human MIA PaCa-2 cells assessed as chromatin condensation incubated for 48 hrs by DAPI staining based analysis; type: functional, cell-based
CDK9/Cyclin K = CDK9/Cyclin K (Homo sapiens, UniProt P50750); test: Inhibition of CDK9/cyclin K (unknown origin) by ADP-Glo assay; type: protein-complex assay
Sequence of CDK9/Cyclin K (P50750 whole entry): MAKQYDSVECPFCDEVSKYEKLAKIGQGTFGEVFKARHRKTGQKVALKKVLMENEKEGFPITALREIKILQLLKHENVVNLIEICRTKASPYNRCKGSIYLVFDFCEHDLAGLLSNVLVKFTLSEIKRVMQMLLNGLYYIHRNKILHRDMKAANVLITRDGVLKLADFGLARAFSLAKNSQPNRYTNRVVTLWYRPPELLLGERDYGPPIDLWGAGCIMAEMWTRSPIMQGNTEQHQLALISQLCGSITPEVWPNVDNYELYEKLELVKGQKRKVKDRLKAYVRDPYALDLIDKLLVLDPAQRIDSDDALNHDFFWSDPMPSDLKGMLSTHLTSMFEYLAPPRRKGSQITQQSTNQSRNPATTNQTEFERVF
Sequence of CDK9/Cyclin K (O75909 whole entry, further chain): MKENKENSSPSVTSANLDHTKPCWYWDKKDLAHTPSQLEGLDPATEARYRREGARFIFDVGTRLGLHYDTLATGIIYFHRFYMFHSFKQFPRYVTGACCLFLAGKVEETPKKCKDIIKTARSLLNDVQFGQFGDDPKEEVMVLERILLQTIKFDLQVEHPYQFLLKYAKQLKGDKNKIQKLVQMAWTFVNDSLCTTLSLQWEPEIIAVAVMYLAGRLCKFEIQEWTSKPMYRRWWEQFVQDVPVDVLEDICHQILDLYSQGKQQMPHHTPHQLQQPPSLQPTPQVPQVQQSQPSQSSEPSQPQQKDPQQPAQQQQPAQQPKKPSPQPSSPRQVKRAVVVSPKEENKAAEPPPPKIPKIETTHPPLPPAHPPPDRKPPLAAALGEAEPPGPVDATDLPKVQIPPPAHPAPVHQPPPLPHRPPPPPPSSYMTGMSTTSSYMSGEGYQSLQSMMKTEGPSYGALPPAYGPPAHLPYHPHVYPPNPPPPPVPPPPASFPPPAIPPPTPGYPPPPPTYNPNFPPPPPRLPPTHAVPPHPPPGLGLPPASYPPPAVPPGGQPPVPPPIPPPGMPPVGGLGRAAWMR

Sequence of CDK9/cyclin T1 (O60563 whole entry): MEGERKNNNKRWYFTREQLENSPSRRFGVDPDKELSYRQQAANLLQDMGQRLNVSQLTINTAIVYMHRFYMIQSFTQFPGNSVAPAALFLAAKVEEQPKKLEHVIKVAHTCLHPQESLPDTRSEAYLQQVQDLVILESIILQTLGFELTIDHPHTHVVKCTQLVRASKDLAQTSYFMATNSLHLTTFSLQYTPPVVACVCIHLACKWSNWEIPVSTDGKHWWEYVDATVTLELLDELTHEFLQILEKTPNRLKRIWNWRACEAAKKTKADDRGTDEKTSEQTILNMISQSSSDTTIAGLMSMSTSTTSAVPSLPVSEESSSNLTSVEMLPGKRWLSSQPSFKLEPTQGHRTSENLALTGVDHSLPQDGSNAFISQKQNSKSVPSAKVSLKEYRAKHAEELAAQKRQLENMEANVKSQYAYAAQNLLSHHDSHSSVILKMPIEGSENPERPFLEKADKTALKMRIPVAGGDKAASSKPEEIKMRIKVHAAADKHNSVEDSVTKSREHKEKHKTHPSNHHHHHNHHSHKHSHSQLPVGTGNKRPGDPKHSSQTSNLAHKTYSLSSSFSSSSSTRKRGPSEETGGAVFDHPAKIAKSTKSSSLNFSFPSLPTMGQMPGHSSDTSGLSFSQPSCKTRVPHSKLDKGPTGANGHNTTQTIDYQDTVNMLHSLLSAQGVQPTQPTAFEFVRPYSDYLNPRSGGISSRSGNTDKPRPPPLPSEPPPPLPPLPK
Sequence of CDK9/cyclin T1 (P50750 whole entry): as the sequence (P50750 whole entry) above
Sequence of Cyclin-dependent kinase 7/ cyclin H (P51946 whole entry): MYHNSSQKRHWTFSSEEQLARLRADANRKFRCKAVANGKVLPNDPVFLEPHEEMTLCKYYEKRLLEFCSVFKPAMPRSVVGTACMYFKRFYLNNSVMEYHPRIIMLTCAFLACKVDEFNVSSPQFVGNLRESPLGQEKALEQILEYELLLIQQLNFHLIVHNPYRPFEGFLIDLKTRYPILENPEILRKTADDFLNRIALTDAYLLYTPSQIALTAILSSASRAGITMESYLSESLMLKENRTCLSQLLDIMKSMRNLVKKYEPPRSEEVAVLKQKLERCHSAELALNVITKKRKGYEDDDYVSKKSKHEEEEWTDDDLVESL
Sequence of Cyclin-dependent kinase 7/ cyclin H (P50613 whole entry): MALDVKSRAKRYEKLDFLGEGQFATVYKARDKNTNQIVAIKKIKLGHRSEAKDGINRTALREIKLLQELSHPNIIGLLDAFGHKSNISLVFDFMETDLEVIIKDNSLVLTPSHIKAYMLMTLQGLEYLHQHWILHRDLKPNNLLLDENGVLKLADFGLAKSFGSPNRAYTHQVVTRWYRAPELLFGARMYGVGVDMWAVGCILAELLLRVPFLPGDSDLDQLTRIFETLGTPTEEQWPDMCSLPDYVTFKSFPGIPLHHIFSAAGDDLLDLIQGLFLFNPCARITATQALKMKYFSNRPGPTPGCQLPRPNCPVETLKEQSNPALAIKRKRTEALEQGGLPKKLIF

C[N+]1([O-])CC[C@H](c2c(O)cc(O)c3c(=O)cc(/C=C/c4ccc(Cl)cc4Br)oc23)[C@H](O)C1 (stereo partly drawn)
inhibition [1]: 65.4% | inhibition at 48 h, 10 µM [2]: 21.4% | inhibition [3]: 66.2% | inhibition at 10 µM (HCT-116 [4]): 57.1% | inhibition at 10 µM (MIA PaCa-2 [5]): 58.4%

COc1cc(O)c2c(=O)cc(/C=C/c3c(F)ccc(Cl)c3F)oc2c1[C@H]1CC[N+](C)([O-])C[C@H]1OC (stereo partly drawn)
inhibition [1]: 50.3% | inhibition at 48 h, 10 µM [2]: 15.5% | inhibition [3]: 17% | inhibition at 10 µM (HCT-116 [4]): 38.1% | inhibition at 10 µM (MIA PaCa-2 [5]): 39%

C[N+]1([O-])CC[C@H](c2c(O)cc(O)c3c(=O)cc(/C=C/c4c(F)cccc4Cl)oc23)[C@H](O)C1 (stereo partly drawn)
IC50 (CDK9/cyclin T1): 1.43 µM | inhibition [1]: 48.5% | inhibition at 48 h, 10 µM [2]: 19.3% | GI50 at 48 h [6]: > 100 µM | GI50 (MIA PaCa-2 [7]): 7.05 µM | inhibition at 10 µM (HCT-116 [4]): 61.7% | GI50 (HCT-116 [8]): 4.56 µM | inhibition at 10 µM (MIA PaCa-2 [5]): 56.1% | IC50 [9]: 5.14 µM

CC(=O)O[C@H]1C(=O)[C@@]2(C)[C@H]([C@H](OC(=O)c3ccccc3)[C@]3(O)C[C@H](OC(=O)[C@H](O)[C@@H](NC(=O)c4ccccc4)c4ccccc4)C(C)=C1C3(C)C)[C@]1(OC(C)=O)CO[C@@H]1C[C@@H]2O
Activity (MIA PaCa-2 [10]): Dose-Dependent Effect | Activity (MIA PaCa-2 [11]): Dose-Dependent Effect | Activity (MIA PaCa-2 [12]): Dose-Dependent Effect

C[N+]1([O-])CC[C@H](c2c(O)cc(O)c3c(=O)cc(/C=C/c4ccc(Cl)cc4)oc23)[C@H](O)C1 (stereo partly drawn)
IC50 (CDK9/cyclin T1): 3.85 µM | inhibition [1]: 18.2% | inhibition at 48 h, 10 µM [2]: 9.1% | GI50 at 48 h [6]: 46.3 µM | inhibition [3]: 35.8% | GI50 (MIA PaCa-2 [7]): > 10 µM | IC50 (CDK9/Cyclin K): > 10 µM | inhibition at 10 µM (HCT-116 [4]): 39.3% | GI50 (HCT-116 [8]): > 10 µM | inhibition at 10 µM (MIA PaCa-2 [5]): 44.2% | IC50 [9]: > 10 µM

COc1cc(O)c2c(=O)cc(/C=C/c3cccc(Cl)c3F)oc2c1[C@H]1CC[N+](C)([O-])C[C@H]1O (stereo partly drawn)
inhibition [1]: 47.5% | inhibition at 48 h, 10 µM [2]: 17.2% | inhibition [3]: 59.6% | inhibition at 10 µM (HCT-116 [4]): 62.1% | inhibition at 10 µM (MIA PaCa-2 [5]): 52.7%

C[N+]1([O-])CC[C@H](c2c(O)cc(O)c3c(=O)cc(/C=C/c4cc(Cl)cc(Cl)c4)oc23)[C@H](O)C1 (stereo partly drawn)
inhibition [1]: 25.6% | inhibition at 48 h, 10 µM [2]: 14.8% | inhibition [3]: 28% | inhibition at 10 µM (HCT-116 [4]): 5.7% | inhibition at 10 µM (MIA PaCa-2 [5]): 11.3%

CCOc1cc(O)c2c(=O)cc(/C=C/c3c(F)cccc3Cl)oc2c1[C@H]1CC[N+](C)([O-])C[C@H]1O (stereo partly drawn)
IC50 (CDK9/cyclin T1): 0.45 µM | inhibition [1]: 37.4% | inhibition at 48 h, 10 µM [2]: 22.8% | GI50 at 48 h [6]: > 100 µM | GI50 (MIA PaCa-2 [7]): 8.03 µM | inhibition at 10 µM (HCT-116 [4]): 34.7% | GI50 (HCT-116 [8]): > 10 µM | inhibition at 10 µM (MIA PaCa-2 [5]): 52.8% | IC50 [9]: > 10 µM

COc1cc(O)c2c(=O)cc(/C=C/c3c(F)ccc(F)c3Cl)oc2c1[C@H]1CC[N+](C)([O-])C[C@H]1O (stereo partly drawn)
inhibition [1]: 51.4% | inhibition at 48 h, 10 µM [2]: 20% | inhibition [3]: 41.8% | inhibition at 10 µM (HCT-116 [4]): 57.7% | inhibition at 10 µM (MIA PaCa-2 [5]): 36.4%

COc1cc(O)c2c(=O)cc(/C=C/c3ccc(F)c(Cl)c3)oc2c1[C@H]1CC[N+](C)([O-])C[C@H]1O (stereo partly drawn)
inhibition [1]: 56.7% | inhibition at 48 h, 10 µM [2]: 6.9% | inhibition [3]: 28.4% | inhibition at 10 µM (HCT-116 [4]): 33.7% | inhibition at 10 µM (MIA PaCa-2 [5]): 27.8%

Cc1cc(=O)c2c(O)cc(O)c([C@H]3CC[N+](C)([O-])C[C@H]3O)c2o1 (stereo partly drawn)
IC50 (CDK9/cyclin T1): 7.65 µM | inhibition [1]: 12.8% | inhibition at 48 h, 10 µM [2]: 14.3% | GI50 at 48 h [6]: > 100 µM | inhibition [3]: 37.9% | GI50 (MIA PaCa-2 [7]): > 10 µM | IC50 (CDK9/Cyclin K): > 10 µM | inhibition at 10 µM (HCT-116 [4]): 34% | GI50 (HCT-116 [8]): > 10 µM | inhibition at 10 µM (MIA PaCa-2 [5]): 18.8% | IC50 [9]: > 10 µM

C[N+]1([O-])CC[C@H](c2c(O)cc(O)c3c(=O)cc(/C=C/c4c(Cl)cccc4Cl)oc23)[C@H](O)C1 (stereo partly drawn)
IC50 (CDK9/cyclin T1): 0.399 µM | inhibition [1]: 47.5% | inhibition at 48 h, 10 µM [2]: 24.1% | GI50 at 48 h [6]: > 100 µM | inhibition [3]: 65.8% | GI50 (MIA PaCa-2 [7]): 9.7 µM | IC50 (CDK9/Cyclin K): 3.44 µM | inhibition at 10 µM (HCT-116 [4]): 72.3% | GI50 (HCT-116 [8]): 5.44 µM | inhibition at 10 µM (MIA PaCa-2 [5]): 53.6% | IC50 [9]: 6.44 µM

C[N+]1([O-])CC[C@H](c2c(O)cc(O)c3c(=O)cc(/C=C/c4cccc(Cl)c4)oc23)[C@H](O)C1 (stereo partly drawn)
IC50 (CDK9/cyclin T1): 3.71 µM | inhibition [1]: 19.4% | inhibition at 48 h, 10 µM [2]: 9.2% | GI50 at 48 h [6]: > 100 µM | inhibition [3]: 37.3% | GI50 (MIA PaCa-2 [7]): > 10 µM | IC50 (CDK9/Cyclin K): > 10 µM | inhibition at 10 µM (HCT-116 [4]): 27.4% | GI50 (HCT-116 [8]): > 10 µM | inhibition at 10 µM (MIA PaCa-2 [5]): 36.3% | IC50 [9]: > 10 µM

C[N+]1([O-])CC[C@H](c2c(O)cc(O)c3c(=O)cc(/C=C/c4ccccc4F)oc23)[C@H](O)C1 (stereo partly drawn)
IC50 (CDK9/cyclin T1): 0.676 µM | inhibition [1]: 15.9% | inhibition at 48 h, 10 µM [2]: 18.8% | GI50 at 48 h [6]: > 100 µM | inhibition [3]: 58.9% | GI50 (MIA PaCa-2 [7]): 5.58 µM | IC50 (CDK9/Cyclin K): 8.47 µM | inhibition at 10 µM (HCT-116 [4]): 18.2% | GI50 (HCT-116 [8]): > 10 µM | inhibition at 10 µM (MIA PaCa-2 [5]): 31.8% | IC50 [9]: > 10 µM

C[N+]1([O-])CC[C@H](c2c(O)cc(O)c3c(=O)cc(/C=C/c4ccccc4)oc23)[C@H](O)C1 (stereo partly drawn)
IC50 (CDK9/cyclin T1): 1.99 µM | inhibition [1]: 41.7% | inhibition at 48 h, 10 µM [2]: 8.2% | GI50 at 48 h [6]: > 100 µM | inhibition [3]: 44.2% | GI50 (MIA PaCa-2 [7]): > 10 µM | IC50 (CDK9/Cyclin K): > 10 µM | inhibition at 10 µM (HCT-116 [4]): 20.5% | GI50 (HCT-116 [8]): > 10 µM | inhibition at 10 µM (MIA PaCa-2 [5]): 21.5% | IC50 [9]: > 10 µM

C[N+]1([O-])CC[C@H](c2c(O)cc(O)c3c(=O)cc(/C=C/c4ccccc4I)oc23)[C@H](O)C1 (stereo partly drawn)
inhibition [1]: 89.6% | inhibition at 48 h, 10 µM [2]: 13.4% | inhibition [3]: 64.8% | inhibition at 10 µM (HCT-116 [4]): 38.3% | inhibition at 10 µM (MIA PaCa-2 [5]): 38.1%

C[N+]1([O-])CC[C@H](c2c(O)cc(O)c3c(=O)cc(/C=C/c4ccc(Cl)cc4Cl)oc23)[C@H](O)C1 (stereo partly drawn)
inhibition [1]: 49.6% | inhibition at 48 h, 10 µM [2]: 18.2% | inhibition [3]: 43.2% | inhibition at 10 µM (HCT-116 [4]): 54% | inhibition at 10 µM (MIA PaCa-2 [5]): 41.2%

CN1CC[C@H](c2c(O)cc(O)c3c(=O)cc(/C=C/c4c(Cl)cccc4Cl)oc23)[C@H](O)C1
IC50 (CDK9/cyclin T1): 0.003 µM | inhibition [1]: 81.6% | inhibition at 48 h, 10 µM [2]: 20.6% | GI50 at 48 h [6]: > 100 µM | inhibition [3]: 83.6% | GI50 (MIA PaCa-2 [7]): 1.94 µM | IC50 (CDK9/Cyclin K): 0.32 µM | inhibition at 10 µM (HCT-116 [4]): 49.5% | GI50 (HCT-116 [8]): 9.32 µM | inhibition at 10 µM (MIA PaCa-2 [5]): 82.5%

C[N+]1([O-])CC[C@H](c2c(O)cc(O)c3c(=O)cc(/C=C/c4ccccc4Br)oc23)[C@H](O)C1 (stereo partly drawn)
IC50 (CDK9/cyclin T1): 0.231 µM | inhibition [1]: 49.4% | inhibition at 48 h, 10 µM [2]: 17.2% | GI50 at 48 h [6]: 95.2 µM | inhibition [3]: 60.2% | GI50 (MIA PaCa-2 [7]): 5.35 µM | IC50 (CDK9/Cyclin K): 2.41 µM | inhibition at 10 µM (HCT-116 [4]): 36.3% | GI50 (HCT-116 [8]): 9.32 µM | inhibition at 10 µM (MIA PaCa-2 [5]): 70.3% | IC50 [9]: 1.62 µM
